# In patent publication US11786586B2, “Carbohydrate structures and uses thereof” (AOA Dx, priority 2016, dated 2023):
# Columns and labels:
# T-cells = test: 3H-thymidine incorporation of T-cells treated with Concanavalin A; type: cell-based, mouse; conditions: ConA stimulation; mean±SD
# Procedure: (§1) EL4-GD2+ cells and control Jurkat cells were treated with 25 μg/mL Mitomycin (Sigma) for 1 h to arrest proliferation. After the cells were washed three times with media to remove Mitomycin, they were plated in 96-well plates at 2×10^5 cells/well. Single cell suspensions of splenocytes were obtained from twice immunized (as above) and from vehicle-injected control mice. Cells were separated following the protocol of the EasySep Negative Selection Mouse T-cell Enrichment Kit (Stemcell Technologies). […] The T-cells were plated at a ratio of 10:1 with Mitomycin-treated EL4 or Jurkat cells. As controls, cultures of T-cells alone (no stimulating tumor cells) or T-cells treated with Concanavalin A were used. After 5 days of culture, 0.1 μCi/well 3H-thymidine (Sigma-Aldrich) was added. DNA-incorporated 3H-thymidine was counted by liquid scintillation, and data are reported as average cpm ±SD. […] After 7 days, in vitro, cell viability was assessed by staining with 0.1% Trypan Blue, and cells were counted using a hemocytometer. Bright field images were acquired using an Olympus CKX41 microscope, mounted with an Infinity 1 digital camera and Infinity Analyze software (Lumenera Corporation).
# Water solubility = type: physicochemical
# Text: Carbohydrates were synthesized as previously described (Gilbert, M., et al. J Biol Chem. 277(1):327-337, 2002; Chiu, C. P., et al. Nat Struc Mol Bio. 11(2)163-170, 2004; and Blixt, O., Carbohydrate Research. 340(12):1963-1972, 2005) by modification of the process for phenylthio-GD2 in which the phenylthio moiety was substituted with a p-aminophenylether in the starting p-aminophenyl-β-D-lactopyranoside (AP-Lac, from Toronto Research Chemicals), that was subsequently used to enzymatically synthesize the respective ganglioside carbohydrate for conjugation to the dendrimer (see below). AP-GD2 and AP-GD3 were water soluble (>20 mg/ml). The measured molecular weights of AP-GD2 (1218 g/mol) and AP-GD3 (927 g/mol) corresponded to expected values. Structures were verified by 1D and 2D NMR spectroscopy and mass spectrometry (EI-MS). The AP-GD2 and AP-GD3 intermediates were purified to >99% purity by size-exclusion chromatography (Superdex 30 16 mm×85 cm column, GE Health Care) before their application in the synthesis of the tetrameric vaccines.
# Jurkat cells = test: 3H-thymidine incorporation (proliferation) assay, Jurkat stimulator cells; type: cell-based; conditions: 25 μg/mL Mitomycin for 1 h
# Procedure: as §1
# EL4-GD2+ cells = test: 3H-thymidine incorporation (proliferation) assay, EL4-GD2+ stimulator cells; type: cell-based, mouse; conditions: 25 μg/mL Mitomycin for 1 h
# Procedure: as §1
compound,measurement,setting,value
Concanavalin A [ConA],"3H-thymidine incorporation, T-cells from Tetra-GD2 vaccinated mice",T-cells,"19,834±309 cpm"
same,"3H-thymidine incorporation, T-cells from naive mice",T-cells,"21,457±504 cpm"
p-amino phenyl ether-GD3 [AP-GD3],water solubility (in words),Water solubility,water-soluble
CO[C@@]12[C@H](COC(N)=O)C3=C(C(=O)C(C)=C(N)C3=O)N1C[C@@H]1N[C@@H]12 [Mitomycin],3H-thymidine incorporation of mitomycin-treated Jurkat cells,Jurkat cells,107±5 cpm
same,3H-thymidine incorporation of mitomycin-treated EL4-GD2+ cells,EL4-GD2+ cells,188±4 cpm
p-amino phenyl ether-GD2 [AP-GD2],water solubility (in words),Water solubility,water-soluble
